Patent US8293731B2, “HIV integrase inhibitors” (Merck Sharp + Dohme Corp., priority 2005, dated 2012)

Test system: HIV
Experiment: Assay for inhibition of HIV replication (spread assay): acute HIV infection of T-lymphoid cells
Type: cell-based
Conditions: Human immunodeficiency virus 1, 'less than about'
Procedure: Assays for the inhibition of acute HIV infection of T-lymphoid cells were conducted in accordance with Vacca, J. P. et al., Proc. Natl. Acad. Set USA 1994, 91: 4096. […] For example, the compounds of Examples 1 to 64 were tested in this assay and found to have IC95 values of less than about 10 micromolar.

SMILES	IC95 [µM]
CN1CC(N2CCOCC2)CCn2c(c3c(c(O)c2=O)C(=O)N(Cc2ccc(F)c(Cl)c2)CC3)C1=O (stereo not drawn) [Example 27, 11-(3-Chloro-4-fluorobenzyl)-9-hydroxy-2-methyl-4-morpholin-4-yl-3,4,5,6,12,13-hexahydro-2H[1,4]diazocino[2,1-a]-2,6-naphthyridine-1,8,10(11H)-trione]	< 10
CC1CCCN(C)C(=O)c2c3c(c(O)c(=O)n21)C(=O)N(Cc1ccc(F)c(Cl)c1)CC3 (stereo not drawn) [Example 28, 11-(3-Chloro-4-fluorobenzyl)-9-hydroxy-2,6-dimethyl-3,4,5,6,12,13-hexahydro-2H[1,4]diazocino[2,1-a]2,6-naphthyridine-1,8,10(11H)-trione]	< 10
CC1CCCN(CCO)C(=O)c2c3c(c(O)c(=O)n21)C(=O)N(Cc1ccc(F)c(Cl)c1)CC3 (stereo not drawn) [Example 30, 11-(3-Chloro-4-fluorobenzyl)-9-hydroxy-2-(2-hydroxyethyl)-6-methyl-3,4,5,6,12,13-hexahydro-2H[1,4]diazocino[2,1-a]-2,6-naphthyridine-1,8,10(11H)-trione]	< 10
CC1CCCN(CCN2CCOCC2)C(=O)c2c3c(c(O)c(=O)n21)C(=O)N(Cc1ccc(F)c(Cl)c1)CC3 (stereo not drawn) [Example 32, 11-(3-Chloro-4-fluorobenzyl)-9-hydroxy-2-(2-morpholin-4-ylethyl)-6-methyl-3,4,5,6,12,13-hexahydro-2H[1,4]diazocino[2,1-a]-2,6-naphthyridine-1,8,10(11H)-trione]	< 10
CC1CCCN(CCN2CCCCC2)C(=O)c2c3c(c(O)c(=O)n21)C(=O)N(Cc1ccc(F)c(Cl)c1)CC3 (stereo not drawn) [Example 33, 11-(3-Chloro-4-fluorobenzyl)-9-hydroxy-2-(2-piperidinyl-1-ylethyl)-6-methyl-3,4,5,6,12,13-hexahydro-2H[1,4]diazocino[2,1-a]-2,6-naphthyridine-1,8,10(11H)-trione]	< 10
CC1CCCN(CCN2CCCC2)C(=O)c2c3c(c(O)c(=O)n21)C(=O)N(Cc1ccc(F)c(Cl)c1)CC3 (stereo not drawn) [Example 34, 11-(3-Chloro-4-fluorobenzyl)-9-hydroxy-2-(2-pyrrolidinyl-1-ylethyl)-6-methyl-3,4,5,6,12,13-hexahydro-2H[1,4]diazocino[2,1-a]-2,6-naphthyridine-1,8,10(11H)-trione]	< 10
CC1CCCN(CCn2cccn2)C(=O)c2c3c(c(O)c(=O)n21)C(=O)N(Cc1ccc(F)c(Cl)c1)CC3 (stereo not drawn) [Example 35, 11-(3-Chloro-4-fluorobenzyl)-9-hydroxy-2-[2-(1H-pyrazol-1-yl)ethyl]-6-methyl-3,4,5,6,12,13-hexahydro-2H[1,4]diazocino[2,1-a]-2,6-naphthyridine-1,8,10(11H)-trione]	< 10
CC1CCCN(CCn2ccnc2)C(=O)c2c3c(c(O)c(=O)n21)C(=O)N(Cc1ccc(F)c(Cl)c1)CC3 (stereo not drawn) [Example 36, 11-(3-Chloro-4-fluorobenzyl)-9-hydroxy-2-[2-(1H-imidazol-1-yl)ethyl]-6-methyl-3,4,5,6,12,13-hexahydro-2H[1,4]diazocino[2,1-a]-2,6-naphthyridine-1,8,10(11H)-trione]	< 10
CN1CCC(O)Cn2c(c3c(c(O)c2=O)C(=O)N(Cc2ccc(F)c(Cl)c2)CC3)C1=O (stereo not drawn) [Example 37, 11(3-Chloro-4-fluorobenzyl)-5,9-dihydroxy-2-methyl-3,4,5,6,12,13-hexahydro-2H[1,4]diazocino[2,1-a]-2,6-naphthyridine-1,8,10(11H)-trione]	< 10
C[C@H]1C[C@@H](O)CN(C)C(=O)c2c3c(c(O)c(=O)n21)C(=O)N(Cc1ccc(F)c(Cl)c1)CC3 [Example 43, (4R,6S)-11-(3-Ch1oro-4-fluorobenzyl)-4,9-dihydroxy-2,6-dimethyl-3,4,5,6,12,13-hexahydro-2H[1,4]diazocino[2,1-a]-2,6-naphthyridine-1,8,10(11H)-trione]	< 10
C[C@H]1C[C@H](O)CN(C)C(=O)c2c3c(c(O)c(=O)n21)C(=O)N(Cc1ccc(F)c(Cl)c1)CC3 [Example 44, (4S,6S)-11-(3-Chloro-4-fluorobenzyl)-4,9-dihydroxy-2,6-dimethyl-3,4,5,6,12,13-hexahydro-2H[1,4]diazocino[2,1-a]-2,6-naphthyridine-1,8,10(11H)-trione]	< 10
CN1CC(C)(C)CCn2c(c3c(c(O)c2=O)C(=O)N(Cc2ccc(F)c(Cl)c2)CC3)C1=O [Example 45, 11-(3-Chloro-4-fluorobenzyl)-9-hydroxy-2,4,4-trimethyl-3,4,5,6,12,13-hexahydro-2H[1,4]diazocino[2,1-a]-2,6-naphthyridine-1,8,10(11H)trione]	< 10
CC1CCn2c(c3c(c(O)c2=O)C(=O)N(Cc2ccc(F)c(Cl)c2)CC3)C(=O)N(C)C1 (stereo not drawn) [Example 46, 11-(3-Chloro-4-fluorobenzyl)-9-hydroxy-2,4-dimethyl-3,4,5,6,12,13-hexahydro-2H[1,4]diazocino[2,1-a]-2,6-naphthyridine-1,8,10(11H)-trione]	< 10
CN1CCC[C@H](CO)n2c(c3c(c(O)c2=O)C(=O)N(Cc2ccc(F)c(Cl)c2)CC3)C1=O [Example 47, (6R)-11-(3-Chloro-4-fluorobenzyl)-9-hydroxy-6-(hydroxymethyl)-2-methyl-3,4,5,6,12,13-hexahydro-2H-[1,4]diazocino[2,1-a]-2,6-naphthyridine-1,8,10(11H)-trione]	< 10
CN1CCC[C@H](CO)n2c(c3c(c(O)c2=O)C(=O)N(Cc2ccc(F)cc2)CC3)C1=O [Example 48, (6R) 11-(4-Fluorobenzyl)-9-hydroxy-6-(hydroxymethyl)-2-methyl-3,4,5,6,12,13-hexahydro-2H-[1,4]diazocino[2,1-a]2,6-naphthyridine-1,8,10(11H)-trione]	< 10
CN1CCC[C@@H](CO)n2c(c3c(c(O)c2=O)C(=O)N(Cc2ccc(F)c(Cl)c2)CC3)C1=O [Example 49, (6S)-11-(3-Chloro-4-fluorobenzyl)-9-hydroxy-6-(hydroxymethyl)-2-methyl-3,4,5,6,12,13-hexahydro-2H-[1,4]diazocino[2,1-a]-2,6-naphthyridine-1,8,10(11H)-trione]	< 10
C=C1CCCN(C)C(=O)c2c3c(c(O)c(=O)n21)C(=O)N(Cc1ccc(F)c(Cl)c1)CC3 [Example 50, 11-(3-chloro-4-fluorobenzyl)-9-hydroxy-2-methyl-6-methylene-3,4,5,6,12,13-hexahydro-2H-[1,4]diazocino[2,1-a]2,6-naphthyridine-1,8,10(11H)trione]	< 10
CN(C)C(=O)CN1C(=O)C(C)(C)n2c1c1c(c(O)c2=O)C(=O)N(Cc2ccc(F)c(Cl)c2)CC1 [Example 51, 2-[8-(3-Chloro-4-fluorobenzyl)-6-hydroxy-3,3-dimethyl-2,5,7-trioxo-2,3,7,8,9,10-hexahydroimidazo[2,1-a]-2,6-naphthyridin-1(5H)-yl]-N,N-dimethylacetamide]	< 10
CNC(=O)CN1C(=O)C(C)(C)n2c1c1c(c(O)c2=O)C(=O)N(Cc2ccc(F)c(Cl)c2)CC1 [Example 52, 2-[8-(3-Chloro-4-fluorobenzyl)-6-hydroxy-3,3-dimethyl-2,5,7-trioxo-2,3,7,8,9,10-hexahydroimidazo[2,1-a]-2,6-naphthyridin-1(5H)-yl]-N-methylacetamide]	< 10
CC1(C)C(=O)N(CC(N)=O)c2c3c(c(O)c(=O)n21)C(=O)N(Cc1ccc(F)c(Cl)c1)CC3 [Example 53, 2-[8-(3-Chloro-4-fluorobenzyl)-6-hydroxy-3,3-dimethyl-2,5,7-trioxo-2,3,7,8,9,10-hexahydroimidazo[2,1-a]-2,6-naphthyridin-1(5H)-yl]acetamide]	< 10
CC1(C)C(=O)N(CCO)c2c3c(c(O)c(=O)n21)C(=O)N(Cc1ccc(F)c(Cl)c1)CC3 [Example 54, 8-(3-Chloro-4-fluorobenzyl)-6-hydroxy-1-(2-hydroxyethyl)-3,3-dimethyl-1,8,9,10-tetrahydroimidazo[2,1-a]-2,6-naphthyridine-2,5,7(3H)-trione]	< 10
CC1(C)C(=O)N(CCCO)c2c3c(c(O)c(=O)n21)C(=O)N(Cc1ccc(F)c(Cl)c1)CC3 [Example 55, 8-(3-Chloro-4-fluorobenzyl)-6-hydroxy-1-(3-hydroxypropyl)-3,3-dimethyl-1,8,9,10-tetrahydroimidazo[2,1-a]-2,6-naphthyridine-2,5,7(3H)-trione]	< 10
CC1(C)C(=O)N(CCCCO)c2c3c(c(O)c(=O)n21)C(=O)N(Cc1ccc(F)c(Cl)c1)CC3 [Example 56, 8-(3-Chloro-4-fluorobenzyl)-6-hydroxy-1-(4-hydroxybutyl)-3,3-dimethyl-1,8,9,10-tetrahydroimidazo[2,1-a]-2,6-naphthyridine-2,5,7(3H)-trione]	< 10
CC(=O)OCCN1C(=O)C(C)(C)n2c1c1c(c(O)c2=O)C(=O)N(Cc2ccc(F)c(Cl)c2)CC1 [Example 57, 8(3-Chloro-4-fluorobenzyl)-6-hydroxy-1-(2-acetyloxyethyl)-3,3-dimethyl-1,8,9,10-tetrahydroimidazo[2,1-a]-2,6-naphthyridine-2,5,7(3H)-trione]	< 10
CC(=O)OCCCN1C(=O)C(C)(C)n2c1c1c(c(O)c2=O)C(=O)N(Cc2ccc(F)c(Cl)c2)CC1 [Example 58, 8-(3-Chloro-4-fluorobenzyl)-6-hydroxy-1-(3-acetyloxypropyl)-3,3-dimethyl-1,8,9,10-tetrahydroimidazo[2,1-a]-2,6-naphthyridine-2,5,7(3H)-trione]	< 10
CC(=O)OCCCCN1C(=O)C(C)(C)n2c1c1c(c(O)c2=O)C(=O)N(Cc2ccc(F)c(Cl)c2)CC1 [Example 59, 8-(3-Chloro-4-fluorobenzyl)-6-hydroxy-1-(4-acetyloxybutyl)-3,3-dimethyl-1,8,9,10-tetrahydroimidazo[2,1-a]-2,6-naphthyridine-2,5,7(3H)-trione]	< 10
CC1(CCO)C(=O)N(CCO)c2c3c(c(O)c(=O)n21)C(=O)N(Cc1ccc(F)c(Cl)c1)CC3 (stereo not drawn) [Example 60, 8-(3-Chloro-4-fluorobenzyl)-6-hydroxy-1,3-bis(2-hydroxyethyl)-3-methyl-1,8,9,10-tetrahydroimidazo[2,1-a]-2,6-naphthyridine-2,5,7(3H)-trione]	< 10
